Data on 7 compounds can be found in PubChem BioAssay AID1918947 (Molecular Pharmacology Branch, DTP, NCI, 2023).

The structures appear in SMILES notation. Where “and” joins values, the source holds several entries; their conditions need not be identical. Equal entries are not always repeated. Some results are limits rather than exact numbers.

The subject of the experiment is A498 complex spheroid viability. Briefly: Anticancer human tumor A498 cell line growth inhibition.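 For all read-outs here: spheroids exposed to agents for seven days before readout.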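 For viability, T/C: 100% = DMSO vehicle-treated spheroids.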 Conditions: for viability, T/C: stronger effect = lower value. The procedure, abridged:
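Drug combinations with the LSD1 inhibitor iadademstat tested on tumor cells co-cultured as spheroids with endothelial cells and mesenchymal stem cells. Concentrations descended in half-log increments from clinical Cmax or 10 microM.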

The mark [1] stands for this setting: curve of first compound, second compound 0.1 µM.
The mark [2] stands for this setting: curve of first compound, second compound 0.316 µM.
The mark [3] stands for this setting: curve of first compound, second compound 1 µM.
Setting [4] is: curve of first compound, second compound 3.16 µM.
The mark [5] stands for this setting: curve of first compound, second compound 10 µM.
The mark [6] stands for this setting: second compound 0.1 µM, first compound 0.00316 µM.
The mark [7] stands for this setting: second compound 0.1 µM, first compound 0.01 µM.
Where [8] appears, read: second compound 0.1 µM, first compound 0.0316 µM.
[9] abbreviates: second compound 0.1 µM, first compound 0.1 µM.
Where [10] appears, read: second compound 0.1 µM, first compound 0.316 µM.
[11] abbreviates: second compound 0.1 µM, first compound 1 µM.
The mark [12] stands for this setting: second compound 0.316 µM, first compound 0.00316 µM.
Where [13] appears, read: second compound 0.316 µM, first compound 0.01 µM.
Where [14] appears, read: second compound 0.316 µM, first compound 0.0316 µM.
Where [15] appears, read: second compound 0.316 µM, first compound 0.1 µM.
Where [16] appears, read: second compound 0.316 µM, first compound 0.316 µM.
[17] abbreviates: second compound 0.316 µM, first compound 1 µM.
The mark [18] stands for this setting: second compound 1 µM, first compound 0.00316 µM.
[19] abbreviates: second compound 1 µM, first compound 0.01 µM.
Where [20] appears, read: second compound 1 µM, first compound 0.0316 µM.
The mark [21] stands for this setting: second compound 1 µM, first compound 0.1 µM.
[22] abbreviates: second compound 1 µM, first compound 0.316 µM.
Setting [23] is: second compound 1 µM, first compound 1 µM.
The mark [24] stands for this setting: second compound 3.16 µM, first compound 0.00316 µM.
Where [25] appears, read: second compound 3.16 µM, first compound 0.01 µM.
Setting [26] is: second compound 3.16 µM, first compound 0.0316 µM.
Setting [27] is: second compound 3.16 µM, first compound 0.1 µM.
The mark [28] stands for this setting: second compound 3.16 µM, first compound 0.316 µM.
Where [29] appears, read: second compound 3.16 µM, first compound 1 µM.
Setting [30] is: second compound 10 µM, first compound 0.00316 µM.
Where [31] appears, read: second compound 10 µM, first compound 0.01 µM.
Where [32] appears, read: second compound 10 µM, first compound 0.0316 µM.
Setting [33] is: second compound 10 µM, first compound 0.1 µM.
Setting [34] is: second compound 10 µM, first compound 0.316 µM.
The mark [35] stands for this setting: second compound 10 µM, first compound 1 µM.
[36] abbreviates: second compound 0.1 µM, first compound 3.16 µM.
Where [37] appears, read: second compound 0.1 µM, first compound 10 µM.
Where [38] appears, read: second compound 0.316 µM, first compound 3.16 µM.
[39] abbreviates: second compound 0.316 µM, first compound 10 µM.
Where [40] appears, read: second compound 1 µM, first compound 3.16 µM.
Where [41] appears, read: second compound 1 µM, first compound 10 µM.
Setting [42] is: second compound 3.16 µM, first compound 3.16 µM.
Where [43] appears, read: second compound 3.16 µM, first compound 10 µM.
Where [44] appears, read: second compound 10 µM, first compound 3.16 µM.
Where [45] appears, read: second compound 10 µM, first compound 10 µM.

With `Nc1ncn(C2CC(O)C(CO)O2)c(=O)n1` (stereo unspecified) + NC1CC1c1ccc(-c2cccc(O)c2)cc1, the concentration for half-maximal inhibition (IC50) under setting [1] was more than 1000 nM; the IC50 under setting [2] is more than 1000 nM; the IC50 under setting [3] was more than 1000 nM; the half-inhibitory concentration (IC50) under setting [4] was more than 1000 nM; the half-maximal inhibitory concentration (IC50) under setting [5] is more than 1000 nM. The viability, T/C runs as follows: under setting [6], 110%; under setting [7], 113%; under setting [8], 104%; under setting [9], 94.5%; under setting [10], 92.3%; under setting [11], 78.6%. Besides, the viability, T/C under setting [12] is 118%; the viability, T/C under setting [13] is 120%; the viability, T/C under setting [14] was 107%; the viability, T/C under setting [15] is 97.1%; the viability, T/C under setting [16] is 93.1%; the viability, T/C under setting [17] was 68.5%. For the same compound, the viability, T/C reads like this: under setting [18], 113%; under setting [19], 114%; under setting [20], 110%; under setting [21], 95.7%; under setting [22], 86.1%; under setting [23], 67.3%. The viability, T/C under setting [24] is 112%; the viability, T/C under setting [25] was 114%; the viability, T/C under setting [26] was 110%; the viability, T/C under setting [27] is 95.4%; the viability, T/C under setting [28] is 75.6%; the viability, T/C under setting [29] is 63.2%. Besides, the viability, T/C is, setting by setting: under setting [30], 107%; under setting [31], 100%; under setting [32], 105%; under setting [33], 101%; under setting [34], 80.2%; under setting [35], 60.4%.

Regarding `CC(C)CC(NC(=O)C(Cc1ccccc1)NC(=O)c1cnccn1)B(O)O` (stereo unspecified) + NC1CCC(NC2CC2c2ccccc2)CC1, the IC50 runs as follows: under setting [1], 0.966 nM; under setting [2], 0.876 nM; under setting [3], 0.765 nM; under setting [4], 0.635 nM; under setting [5], 0.527 nM. In addition, the viability, T/C by setting is: (second compound 0.1 µM, first compound 0.000316 µM) 82.1%; (second compound 0.1 µM, first compound 0.001 µM) 49%; under setting [6], 3.94%; under setting [7], 1.24%; under setting [8], 0.46%; under setting [9], 0.48%. In addition, the viability, T/C runs as follows: (second compound 0.316 µM, first compound 0.000316 µM) 90.5%; (second compound 0.316 µM, first compound 0.001 µM) 44.7%; under setting [12], 3.08%; under setting [13], 1.09%; under setting [14], 0.41%; under setting [15], 0.97%. Also, the viability, T/C by setting is: (second compound 1 µM, first compound 0.000316 µM) 84.5%; (second compound 1 µM, first compound 0.001 µM) 39.5%; under setting [18], 2.52%; under setting [19], 0.84%; under setting [20], 1.13%; under setting [21], 0.61%. For the same compound, the viability, T/C (second compound 3.16 µM, first compound 0.000316 µM) is 78.5%; the viability, T/C (second compound 3.16 µM, first compound 0.001 µM) is 31.5%; the viability, T/C under setting [24] was 1.91%; the viability, T/C under setting [25] was 0.54%; the viability, T/C under setting [26] is 0.31%; the viability, T/C under setting [27] is 0.35%. In addition, the viability, T/C by setting is: (second compound 10 µM, first compound 0.000316 µM) 67.6%; (second compound 10 µM, first compound 0.001 µM) 28%; under setting [30], 1.67%; under setting [31], 0.4%; under setting [32], 0.26%; under setting [33], 0.41%.

Turning to `CC1COCCN1c1cc(-c2ccnn2C)c2ccnc(-c3ccn[nH]3)c2n1` (stereo unspecified), the viability, T/C runs as follows: (compound 0.00316 µM) 103% and 100%; (compound 0.01 µM) 82% and 81.8%; (compound 0.0316 µM) 36.7% and 37.3%; (compound 0.1 µM) 18.8% and 22.5%; (compound 0.316 µM) 14.9% and 16.1%; (compound 1 µM) 11.2% and 10.8%. Besides, the concentration for half-maximal inhibition (IC50) (curve of compound) is 22.8 nM and 23.4 nM.

For the compound `CC(C)c1c(-c2ccccc2)nc2c(C#N)c[nH]n2c1=O` + NC1CC1c1ccc(-c2cccc(O)c2)cc1, the 50% inhibitory concentration (IC50) under setting [1] is more than 10000 nM; the IC50 under setting [2] is more than 10000 nM; the IC50 under setting [3] is more than 10000 nM; the IC50 under setting [4] is more than 10000 nM; the IC50 under setting [5] was more than 10000 nM. The viability, T/C under setting [8] was 98%; the viability, T/C under setting [9] is 113%; the viability, T/C under setting [10] is 106%; the viability, T/C under setting [11] was 102%; the viability, T/C under setting [36] was 104%; the viability, T/C under setting [37] was 108%. For the same compound, the viability, T/C under setting [14] was 104%; the viability, T/C under setting [15] was 101%; the viability, T/C under setting [16] is 101%; the viability, T/C under setting [17] was 107%; the viability, T/C under setting [38] was 99.1%; the viability, T/C under setting [39] was 97.4%. Also, the viability, T/C was 93.4% under setting [20]; 101% under setting [21]; 95.6% under setting [22]; 99.5% under setting [23]; 89% under setting [40]; 98% under setting [41]. Also, the viability, T/C is 97.4% under setting [26]; 94% under setting [27]; 97.5% under setting [28]; 94.7% under setting [29]; 94.9% under setting [42]; 98.5% under setting [43]. The viability, T/C is 86.7% under setting [32]; 92% under setting [33]; 91.3% under setting [34]; 97.4% under setting [35]; 96.1% under setting [44]; 94.9% under setting [45].

Regarding `NS(=O)(=O)OCC1CC(n2ccc3c(NC4CCc5ccccc54)ncnc32)CC1O` (stereo unspecified), the viability, T/C by setting is: (compound 0.00949 µM) 81% and 90.7%; (compound 0.03 µM) 57.2% and 60.5%; (compound 0.0949 µM) 27.1% and 30.7%; (compound 0.3 µM) 18.4% and 21.2%; (compound 0.949 µM) 12.2% and 15.6%; (compound 3 µM) 9.37% and 11.7%. The IC50 (curve of compound) was 39.2 nM and 45.3 nM.

Regarding `CC1COCCN1c1cc(C2(S(C)(=N)=O)CC2)nc(-c2ccnc3[nH]ccc23)n1` (stereo unspecified) + NC1CC1c1ccc(-c2cccc(O)c2)cc1, the 50% inhibitory concentration (IC50) turned out to be 409 nM under setting [1]; 509 nM under setting [2]; 552 nM under setting [3]; 503 nM under setting [4]; 539 nM under setting [5]. The viability, T/C reads like this: under setting [8], 92%; under setting [9], 85.2%; under setting [10], 55.2%; under setting [11], 28%; under setting [36], 16.1%; under setting [37], 11.5%. The viability, T/C under setting [14] was 97.8%; the viability, T/C under setting [15] is 96.8%; the viability, T/C under setting [16] is 68.4%; the viability, T/C under setting [17] was 23.9%; the viability, T/C under setting [38] was 16.7%; the viability, T/C under setting [39] is 15.6%. The viability, T/C is 86.7% under setting [20]; 94% under setting [21]; 69.9% under setting [22]; 28% under setting [23]; 15.1% under setting [40]; 10.6% under setting [41]. For the same compound, the viability, T/C under setting [26] is 85.2%; the viability, T/C under setting [27] is 87.9%; the viability, T/C under setting [28] was 63.9%; the viability, T/C under setting [29] was 28.1%; the viability, T/C under setting [42] is 16.8%; the viability, T/C under setting [43] was 11.2%. Besides, the viability, T/C is, setting by setting: under setting [32], 89.7%; under setting [33], 84.8%; under setting [34], 63%; under setting [35], 34%; under setting [44], 17.8%; under setting [45], 10.1%.

Regarding `COc1cc(Nc2ncc3c(n2)-c2ccc(Cl)cc2C(c2c(F)cccc2OC)=NC3)ccc1C(=O)O`, the viability, T/C runs as follows: (compound 0.00316 µM) 95.5% and 94.2%; (compound 0.01 µM) 84.6% and 64.9%; (compound 0.0316 µM) 76.9% and 71.9%; (compound 0.1 µM) 66.4% and 62.6%; (compound 0.316 µM) 60% and 54.1%; (compound 1 µM) 50.4% and 40.4%. Further, the IC50 (curve of compound) is > 1000 nM and 381 nM.

One may read the IC50 as the point on the concentration scale where inhibition reaches its midpoint. Broadly, the viability, T/C is the result in the treated group divided by that in the control group, in per cent.
